Data on 26 molecules can be found in PubChem BioAssay AID330 (DTP/NCI, 2004).

Inconclusive results and toxic doses are left out.

The test system of the test is P388 leukemia ip, CD2F1 mice, survival T/C. The experiment in a line: NCI In Vivo Anticancer Drug Screen. Data for tumor model P388 Leukemia (intraperitoneal) in CD2F1 (CDF1) mice. The settings on record: endpoint: median survival time, higher = longer survival. In outline:
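Mice carrying the transplanted tumor received test compound or vehicle. Survival was recorded in each group, and the value is the treated-group measurement divided by that of the vehicle-treated control group.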

The mark [1] stands for this setting: dose: 60.0 mg/kg/injection, schedule: Q01DX005 (ip), vehicle: saline with Tween-80.
The mark [2] stands for this setting: dose: 120.0 mg/kg/injection, schedule: Q01DX005 (ip), vehicle: saline with Tween-80.
The mark [3] stands for this setting: dose: 240.0 mg/kg/injection, schedule: Q01DX005 (ip), vehicle: saline with Tween-80.
[4] abbreviates: dose: 60.0 mg/kg/injection, schedule: Q01DX005 (ip), vehicle: Klucel (hydroxypropylcellulose) (HPC).
Setting [5] is: dose: 120.0 mg/kg/injection, schedule: Q01DX005 (ip), vehicle: Klucel (hydroxypropylcellulose) (HPC).
The mark [6] stands for this setting: dose: 240.0 mg/kg/injection, schedule: Q01DX005 (ip), vehicle: Klucel (hydroxypropylcellulose) (HPC).
[7] abbreviates: dose: 100.0 mg/kg/injection, schedule: Q04DX003 (ip), vehicle: saline.
The mark [8] stands for this setting: dose: 200.0 mg/kg/injection, schedule: Q04DX003 (ip), vehicle: saline.
[9] abbreviates: dose: 400.0 mg/kg/injection, schedule: Q04DX003 (ip), vehicle: saline.
[10] abbreviates: dose: 50.0 mg/kg/injection, schedule: Q01DX005 (ip), vehicle: Klucel (hydroxypropylcellulose) (HPC).
Where [11] appears, read: dose: 100.0 mg/kg/injection, schedule: Q01DX005 (ip), vehicle: Klucel (hydroxypropylcellulose) (HPC).

`O=C(c1cc2ccccc2o1)N1CCN(Cc2ccccc2)CC1`: the T/C (dose: 50.0 mg/kg/injection, schedule: Q01DX009 (ip), vehicle: Klucel (hydroxypropylcellulose) (HPC)) was 102 % of control; the T/C (dose: 100.0 mg/kg/injection, schedule: Q01DX009 (ip), vehicle: Klucel (hydroxypropylcellulose) (HPC)) was 101 % of control; the T/C (dose: 200.0 mg/kg/injection, schedule: Q01DX009 (ip), vehicle: Klucel (hydroxypropylcellulose) (HPC)) is 109 % of control.

On to `Cc1nc2c(cnn2C)cc1CCc1ccccc1`, for which the T/C by setting is: under setting [1], 94 % of control; under setting [2], 95 % of control; under setting [3], 103 % of control.

In the case of `NC(=S)NNC(=O)c1cccs1`, the T/C is, setting by setting: under setting [1], 108 % of control; under setting [2], 100 % of control; under setting [3], 99 % of control.

For `COc1c(OC)c(C2(O)C(=O)N(C)c3ccccc32)c(OC)c(OC)c1C1(O)C(=O)N(C)c2ccccc21` (stereo not given), the T/C reads like this: under setting [1], 88 % of control; under setting [2], 87 % of control; under setting [3], 87 % of control.

`C=C1C(=O)OC2CC3(C)C=CC(=O)C(=C)C3CC12` (stereo not given): the T/C is 104 % of control (dose: 12.5 mg/kg/injection, schedule: Q04DX003 (ip), vehicle: Klucel (hydroxypropylcellulose) (HPC)) and 114 % of control (dose: 25.0 mg/kg/injection, schedule: Q04DX003 (ip), vehicle: Klucel (hydroxypropylcellulose) (HPC)).

Consider `C=CCOc1cccc(OCC=C)c1C`, for which the T/C was 113 % of control (dose: 100.0 mg/kg/injection, schedule: Q04DX003 (ip), vehicle: saline with Tween-80); 100 % of control (dose: 200.0 mg/kg/injection, schedule: Q04DX003 (ip), vehicle: saline with Tween-80); 104 % of control (dose: 400.0 mg/kg/injection, schedule: Q04DX003 (ip), vehicle: saline with Tween-80).

On to `O=C(O)C(Cc1ccccc1)NC(c1ccc(Cl)cc1)P(=O)(O)O` (stereo not given), for which the T/C runs as follows: under setting [1], 98 % of control; under setting [2], 105 % of control; under setting [3], 97 % of control.

Consider `COC(=O)[C@H]1[C@H]2C[C@@H]3c4[nH]c5cc(OC)ccc5c4CCN3C[C@H]2C[C@@H](OC(=O)c2cccc(N)c2)[C@@H]1OC`, for which the T/C reads like this: (dose: 50.0 mg/kg/injection, schedule: Q01DX005 (ip), vehicle: saline with Tween-80) 101 % of control; (dose: 100.0 mg/kg/injection, schedule: Q01DX005 (ip), vehicle: saline with Tween-80) 97 % of control; (dose: 200.0 mg/kg/injection, schedule: Q01DX005 (ip), vehicle: saline with Tween-80) 97 % of control.

For the molecule `COc1cc2c(cc1OC)-c1c(C)c3ccc(OC)c(NCCN)c3c[n+]1CC2`, the T/C is 110 % of control (dose: 6.25 mg/kg/injection, schedule: Q04DX003 (ip), vehicle: water); 91 % of control (dose: 12.5 mg/kg/injection, schedule: Q04DX003 (ip), vehicle: water); 101 % of control (dose: 25.0 mg/kg/injection, schedule: Q04DX003 (ip), vehicle: water).

In the case of `CSc1nc(N)c(NS(=O)(=O)c2ccc(NC(C)=O)cc2)c(=O)[nH]1`, the T/C is 93 % of control under setting [1], 91 % of control under setting [2] and 96 % of control under setting [3].

With `CCOC1C(=O)C=COC1C(C)C` (stereo not given), the T/C by setting is: (dose: 60.0 mg/kg/injection, schedule: Q01DX005 (ip), vehicle: saline) 108 % of control; (dose: 120.0 mg/kg/injection, schedule: Q01DX005 (ip), vehicle: saline) 104 % of control; (dose: 240.0 mg/kg/injection, schedule: Q01DX005 (ip), vehicle: saline) 110 % of control.

As to `C/C([O-])=N/c1n[n+](-c2ccc(Cl)cc2)no1`, the T/C runs as follows: (dose: 3.12 mg/kg/injection, schedule: Q01DX009 (ip), vehicle: other) 98 % of control; (dose: 6.25 mg/kg/injection, schedule: Q01DX009 (ip), vehicle: other) 100 % of control; (dose: 12.5 mg/kg/injection, schedule: Q01DX009 (ip), vehicle: other) 103 % of control; (dose: 25.0 mg/kg/injection, schedule: Q01DX009 (ip), vehicle: other) 101 % of control; (dose: 50.0 mg/kg/injection, schedule: Q01DX009 (ip), vehicle: other) 112 % of control; (dose: 100.0 mg/kg/injection, schedule: Q01DX009 (ip), vehicle: other) 112 % of control.

Turning to `Cc1[nH]c(=O)nc(CCc2ccccc2)c1-c1ccccc1`, the T/C runs as follows: under setting [1], 93 % of control; under setting [2], 87 % of control.

In the case of `C/C(=C\Cl)CN(C)C`, the T/C reads like this: (dose: 25.0 mg/kg/injection, schedule: Q01DX009 (ip), vehicle: saline with Tween-80) 111 % of control; (dose: 50.0 mg/kg/injection, schedule: Q01DX009 (ip), vehicle: saline with Tween-80) 111 % of control; (dose: 100.0 mg/kg/injection, schedule: Q01DX009 (ip), vehicle: saline with Tween-80) 116 % of control.

For the molecule `CCC[CH2][Sn]1([CH2]CCC)[O]C(=O)C[S]1`, the T/C reads like this: (dose: 0.75 mg/kg/injection, schedule: Q01DX009 (ip), vehicle: saline) 100 % of control; (dose: 1.5 mg/kg/injection, schedule: Q01DX009 (ip), vehicle: saline) 108 % of control; (dose: 2.0 mg/kg/injection, schedule: Q01DX009 (ip), vehicle: saline with Tween-80) 115 % of control; (dose: 2.0 mg/kg/injection, schedule: Q04DX003 (ip), vehicle: saline with Tween-80) 118 % of control; (dose: 4.5 mg/kg/injection, schedule: Q04DX003 (ip), vehicle: saline with Tween-80) 150 % of control.

For `CN(C)CCCN1c2ccccc2Sc2ccc(F)cc21`, the T/C (dose: 50.0 mg/kg/injection, schedule: Q01DX009 (ip), vehicle: saline) is 122 % of control.

As for `COc1cc(-c2nnc(C3CCC(=O)N3Cc3ccccc3)o2)cc(OC)c1OC` (stereo not given), the T/C runs as follows: under setting [1], 103 % of control; under setting [2], 100 % of control; under setting [3], 97 % of control.

Take `O=c1cc(CC2(O)CCCCC2)c2ccccc2[nH]1`: the T/C was 95 % of control under setting [4], 102 % of control under setting [5] and 95 % of control under setting [6].

`CC[C@@]1(O)C[C@H](OC2CC(N(C)C)C(OC3CC4OC5CC(=O)C(C)OC5OC4C(C)O3)C(C)O2)c2c(cc3c(c2O)C(=O)c2c(O)cccc2C3=O)[C@H]1C(=O)OC` (stereo not given in full): the T/C runs as follows: (dose: 0.12 mg/kg/injection, schedule: Q01DX009 (ip), vehicle: water) 117 % of control; (dose: 0.25 mg/kg/injection, schedule: Q01DX009 (ip), vehicle: water) 115 % of control; (dose: 0.5 mg/kg/injection, schedule: Q01DX009 (ip), vehicle: water) 110 % of control; (dose: 1.0 mg/kg/injection, schedule: Q01DX009 (ip), vehicle: water) 110 % of control; (dose: 4.0 mg/kg/injection, schedule: Q01DX009 (ip), vehicle: water) 162 % of control.

As to `O=C(O)CCN(Cc1ccccc1)Cc1ccccc1`, the T/C is, setting by setting: under setting [7], 100 % of control; under setting [8], 100 % of control; under setting [9], 109 % of control.

On to `O=C1CSC(c2cccc(Cl)c2)N1N1C(=O)CSC1c1cccc(Cl)c1` (stereo not given), for which the T/C runs as follows: under setting [4], 102 % of control; under setting [5], 97 % of control; under setting [6], 94 % of control.

For the molecule `O=S(=O)(O)O.[Ga]`, the T/C is, setting by setting: (dose: 33.0 mg/kg/injection, schedule: Q04DX003 (ip), vehicle: saline sonified) 95 % of control; (dose: 50.0 mg/kg/injection, schedule: Q01DX009 (ip), vehicle: saline sonified) 100 % of control; (dose: 50.0 mg/kg/injection, schedule: Q04DX003 (ip), vehicle: saline sonified) 110 % of control.

For the molecule `O=C(O)Cc1sc(=O)[nH]c1O`, the T/C was 100 % of control under setting [7], 100 % of control under setting [8] and 95 % of control under setting [9].

Take `CC1(C)OC2COC3OC(C)(C)OC3(/C=N\NC(=O)c3cc4ccccc4[nH]3)C2O1` (stereo not given): the T/C is 98 % of control under setting [10]; 104 % of control under setting [11]; 102 % of control (dose: 200.0 mg/kg/injection, schedule: Q01DX005 (ip), vehicle: Klucel (hydroxypropylcellulose) (HPC)).

Take `COc1ccc(N2C(=O)C(C)SC23C(=O)Nc2ccc(C)cc23)cc1` (stereo not given): the T/C runs as follows: under setting [1], 109 % of control; under setting [2], 102 % of control; under setting [3], 119 % of control.

With `OC(c1cc(-c2cccc(Cl)c2)nc2ccccc12)C1CCCCN1` (stereo not given), the T/C is 112 % of control under setting [10] and 107 % of control under setting [11].
